Each structure is given as a SMILES string.

What is called inhibition is the share of the control response that was lost under treatment. A low value points to little suppression.

T1 sequence (P0AES4 whole entry, one chain of several): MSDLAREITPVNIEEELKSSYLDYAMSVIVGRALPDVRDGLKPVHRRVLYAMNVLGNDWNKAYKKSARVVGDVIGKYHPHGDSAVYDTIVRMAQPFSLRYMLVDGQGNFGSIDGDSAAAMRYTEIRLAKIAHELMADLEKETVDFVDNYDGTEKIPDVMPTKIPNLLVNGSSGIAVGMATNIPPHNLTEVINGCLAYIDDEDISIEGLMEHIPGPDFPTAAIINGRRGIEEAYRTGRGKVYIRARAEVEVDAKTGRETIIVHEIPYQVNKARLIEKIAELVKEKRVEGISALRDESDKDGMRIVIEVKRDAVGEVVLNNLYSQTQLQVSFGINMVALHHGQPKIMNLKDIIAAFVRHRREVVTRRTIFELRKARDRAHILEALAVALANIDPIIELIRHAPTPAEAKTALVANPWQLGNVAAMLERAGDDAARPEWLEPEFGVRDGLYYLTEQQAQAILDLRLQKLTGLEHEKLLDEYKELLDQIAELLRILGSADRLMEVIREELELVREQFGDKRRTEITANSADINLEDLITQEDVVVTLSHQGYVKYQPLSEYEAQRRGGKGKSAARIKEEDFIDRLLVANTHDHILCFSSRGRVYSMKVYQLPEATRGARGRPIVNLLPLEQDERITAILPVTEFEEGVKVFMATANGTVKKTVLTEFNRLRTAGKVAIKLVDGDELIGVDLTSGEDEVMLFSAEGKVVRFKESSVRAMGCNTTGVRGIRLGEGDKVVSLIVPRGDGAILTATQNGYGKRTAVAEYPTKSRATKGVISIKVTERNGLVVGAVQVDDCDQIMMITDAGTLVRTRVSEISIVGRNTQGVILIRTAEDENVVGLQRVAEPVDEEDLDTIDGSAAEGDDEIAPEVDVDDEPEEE

The assay has as its target T1, E. coli gyrase holoenzyme (GyrA and GyrB) (Escherichia coli, UniProt P0AES4+P0AES6).
T1 construct: His-tagged GyrA and GyrB expressed separately in E. coli BL21-CodonPlus(DE3)-RIL, tags cleaved with TEV protease, Ni-NTA and S200 purified; used as holoenzyme
Nature of the assay: supercoiling, fluorescent cruciform extrusion, NCC screen. The format is biochemical. The text has this: supercoiling, fluorescent cruciform extrusion, NCC screen on E. coli gyrase holoenzyme (GyrA and GyrB)
The molecule `NC1CCN(c2nc3c(cc2F)c(=O)c(C(=O)O)cn3-c2ccc(F)cc2F)C1` (stereo not shown) [Tosufloxacin] returned an inhibition at 50 µM of 96%.

For `CCn1cc(C(=O)O)c(=O)c2cc(F)c(N3CCN(C)CC3)cc21` [Pefloxacin], the inhibition at 50 µM was 95%.

Molecule `CCN1CCN(c2cc3c(cc2F)c(=O)c(C(=O)O)cn3C2CC2)CC1` [Enrofloxacin] had an inhibition at 50 µM of 67%.

The molecule `CN1CCN(c2c(F)cc3c(=O)c(C(=O)O)cn4c3c2SCC4)CC1` [Rufloxacin] displayed an inhibition at 50 µM of 89%.
